Results published in US9056835B2, “LPA2 receptor-specific benzoic acid derivatives” (University of Tennessee Research Foundation, priority 2012, dated 2015).

Tested on: vector- and LPA2-transduced MEF cells
Experiment: Cell proliferation assay
Type: cell-based, mouse
Details: LPA 1 μM, OTP 1 μM, GRI977143 10 μM; for cell growth: LPA2-transduced MEF; for cell proliferation: vector-transduced MEF
Experimental: Mouse embryonic fibroblast (MEF) cells were isolated from E13.5 LPA1&2 double knockout (DKO) embryos. MEFs were transduced with empty vector or LPA2-containing lentiviruses and selected with 1.5 μg/ml puromycin. Cells were maintained in Dulbecco's modified Eagle medium (DMEM) supplemented with 10% (V/V) fetal bovine serum (FBS), 2 mM L-glutamine, 100 U/mL penicillin, and 100 μg/mL streptomycin. Serum-free medium contained 0.1% (W/V) BSA in DMEM. The rat intestinal epithelial cell line 6 (IEC-6) was obtained from the American Type Culture Collection (Rockville, Md.) at passage 13; passages 16-21 were used in all experiments. IEC-6 cells were maintained in a humidified 37° C. incubator in an atmosphere of 90% air and 10% CO2. Growth medium consisted of DMEM supplemented with 5% heat inactivated FBS, 10 μg/mL insulin, and 50 μg/mL gentamycin. The composition of the serum-starvation medium was the same as that of the full growth medium except that it contained no FBS. The McArdle rat hepatoma cell line (RH7777) stably expressing LPA2 receptors was a gift from Dr. Fumikazu Okajima (Gunma University, Maebashi, Japan). RH7777 cells stably expressing LPA1 or LPA3 receptors were generated in-house and had been characterized earlier. Wild type and LPA receptor (LPAR) stably transfected RH7777 cells were grown in DMEM supplemented with 10% FBS and 2 mM L-glutamine in the presence of 250 μg/ml G418. Chinese hamster ovary (CHO) cells stably expressing either vector or LPA4 receptor were a kind gift from Dr. Takao Shimizu (Tokyo University; Tokyo, Japan). Cells were cultured in Ham's F12 medium containing 10% FBS, 2 mM L-glutamine, and 350 μg/ml G418. Rat neuroblastoma cells (B103) were transduced with the lentivirus harboring wild type of FLAG-LPA5 and selected with puromycin to establish the stable cell lines. The stable cells were maintained in DMEM supplemented with 10% FBS and 0.4 μg/ml puromycin. GPR87- and P2Y10-expressing CHO cells and vector-transfected control cells were a gift from Dr. Norihisha Fujita (Ritsumeikan University; Shiga, Japan). The highly invasive MM1 rat hepatoma cells (gift from Dr. Michiko Mukai, Osaka University, Japan) were grown in suspension in DMEM supplemented with 10% (V/V) FBS, 2 mM L-glutamine, 100 U/mL penicillin, and 100 μg/mL streptomycin. Human umbilical vein endothelial cells (HUVEC) were purchased from VEC Technologies Inc. (Rensselaer, N.Y., USA) and cultured in MCDB-131 complete medium supplemented with 10% (V/V) FBS, 90 μg/mL heparin, 10 ng/mL EGF, 1 μg/mL hydrocortisone, 0.2 mg/mL EndoGrowth (VEC Technologies Inc.) supplement, 100 U/mL penicillin G, 100 μg/mL streptomycin, and 25 μg/mL amphotericin B.
For determination of the effect of the LPA receptor ligands on cell growth, vector- and LPA2-transduced MEF cells (2×10^4) were plated in each well of a 24-well plate in full growth medium. Cells were counted the next day and the medium was replaced with medium containing 1.5% (V/V) FBS supplemented with or without 1 μM LPA, 1 μM OTP, or 10 μM GRI977143. Media containing LPA, OTP, and GRI977143 were refreshed every 24 h. The growth rate was measured by counting the number of cells in triplicate using the Z1 Coulter Particle Counter (Beckman Coulter; Hileah, Fla.) as a function of time.

O=C(O)c1ccccc1SCCCN1C(=O)c2cccc3cccc(c23)C1=O [GRI977143]
cell growth: significant from 24 hours onwards | cell proliferation: did not cause a significant increase in vector cell proliferation except at 72 hours

CCCCCCCC/C=C\CCCCCCCC(=O)OC[C@@H](O)COP(=O)(O)O [LPA 18:1, Lysophosphatidic acid (18:1)]
cell growth: significant from 24 hours onwards | cell proliferation: no significant effect

octadecenyl thiophosphate [OTP]
cell growth: significant from 24 hours onwards | cell proliferation: significantly (p<0.001) increased
